Tested on: Detoxification protein genes
Test: DNA chip mRNA expression in yeast, detoxification protein genes (Table 8)
Format: cell-based, Saccharomyces cerevisiae S288C
Outline: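 In this screen, yeast in logarithmic growth are challenged for two hours with a toxic substance at a non-lethal inhibitory concentration. Their mRNA, converted to Cy3- or Cy5-labeled cDNA, hybridizes at 65° C. to a chip spanning every yeast gene, and expression is expressed as a ratio to untreated cells.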

SMILES: C=CC=O [(14), acrolein]
- The level of expressed mRNA in the presence of chemical substance/The level of expressed mRNA in the absence of chemical substance (yeast gene YBR244W): 3.7
- The level of expressed mRNA in the presence of chemical substance/The level of expressed mRNA in the absence of chemical substance (yeast gene YBR293W): 1.4
- The level of expressed mRNA in the presence of chemical substance/The level of expressed mRNA in the absence of chemical substance (yeast gene YCL035C): 2.5
- The level of expressed mRNA in the presence of chemical substance/The level of expressed mRNA in the absence of chemical substance (yeast gene YCL069W): 1.3
- The level of expressed mRNA in the presence of chemical substance/The level of expressed mRNA in the absence of chemical substance (yeast gene YCR083W): 2.4
- The level of expressed mRNA in the presence of chemical substance/The level of expressed mRNA in the absence of chemical substance (yeast gene YDL100C): 1.4
- The level of expressed mRNA in the presence of chemical substance/The level of expressed mRNA in the absence of chemical substance (yeast gene YDL168W): 1.6
- The level of expressed mRNA in the presence of chemical substance/The level of expressed mRNA in the absence of chemical substance (yeast gene YDR256C): 1.6
- The level of expressed mRNA in the presence of chemical substance/The level of expressed mRNA in the absence of chemical substance (yeast gene YDR453C): 3.8
- The level of expressed mRNA in the presence of chemical substance/The level of expressed mRNA in the absence of chemical substance (yeast gene YDR513W): 2.0
- The level of expressed mRNA in the presence of chemical substance/The level of expressed mRNA in the absence of chemical substance (yeast gene YDR538W): 0.9
- The level of expressed mRNA in the presence of chemical substance/The level of expressed mRNA in the absence of chemical substance (yeast gene YEL027W): 1.4
- The level of expressed mRNA in the presence of chemical substance/The level of expressed mRNA in the absence of chemical substance (yeast gene YEL065W): 0.4
- The level of expressed mRNA in the presence of chemical substance/The level of expressed mRNA in the absence of chemical substance (yeast gene YER185W): 1.6
- The level of expressed mRNA in the presence of chemical substance/The level of expressed mRNA in the absence of chemical substance (yeast gene YFL050C): 1.0
- The level of expressed mRNA in the presence of chemical substance/The level of expressed mRNA in the absence of chemical substance (yeast gene YGL013C): 0.8
- The level of expressed mRNA in the presence of chemical substance/The level of expressed mRNA in the absence of chemical substance (yeast gene YGL254W): 1.3
- The level of expressed mRNA in the presence of chemical substance/The level of expressed mRNA in the absence of chemical substance (yeast gene YGR088W): 1.3
- The level of expressed mRNA in the presence of chemical substance/The level of expressed mRNA in the absence of chemical substance (yeast gene YGR138C): 0.9
- The level of expressed mRNA in the presence of chemical substance/The level of expressed mRNA in the absence of chemical substance (yeast gene YGR197C): 1.5
- The level of expressed mRNA in the presence of chemical substance/The level of expressed mRNA in the absence of chemical substance (yeast gene YGR209C): 5.0
- The level of expressed mRNA in the presence of chemical substance/The level of expressed mRNA in the absence of chemical substance (yeast gene YGR224W): 0.9
- The level of expressed mRNA in the presence of chemical substance/The level of expressed mRNA in the absence of chemical substance (yeast gene YHL040C): 1.1
- The level of expressed mRNA in the presence of chemical substance/The level of expressed mRNA in the absence of chemical substance (yeast gene YHL047C): 0.5
- The level of expressed mRNA in the presence of chemical substance/The level of expressed mRNA in the absence of chemical substance (yeast gene YHR008C): 1.6
- The level of expressed mRNA in the presence of chemical substance/The level of expressed mRNA in the absence of chemical substance (yeast gene YHR048W): 1.7
- The level of expressed mRNA in the presence of chemical substance/The level of expressed mRNA in the absence of chemical substance (yeast gene YHR053C): 1.5
- The level of expressed mRNA in the presence of chemical substance/The level of expressed mRNA in the absence of chemical substance (yeast gene YHR055C): 1.5
- The level of expressed mRNA in the presence of chemical substance/The level of expressed mRNA in the absence of chemical substance (yeast gene YIR002C): 1.1
- The level of expressed mRNA in the presence of chemical substance/The level of expressed mRNA in the absence of chemical substance (yeast gene YIR038C): 2.5
- The level of expressed mRNA in the presence of chemical substance/The level of expressed mRNA in the absence of chemical substance (yeast gene YJL101C): 1.0
- The level of expressed mRNA in the presence of chemical substance/The level of expressed mRNA in the absence of chemical substance (yeast gene YJR104C): 2.0
- The level of expressed mRNA in the presence of chemical substance/The level of expressed mRNA in the absence of chemical substance (yeast gene YKL026C): 1.8
- The level of expressed mRNA in the presence of chemical substance/The level of expressed mRNA in the absence of chemical substance (yeast gene YKL064W): 1.1
- The level of expressed mRNA in the presence of chemical substance/The level of expressed mRNA in the absence of chemical substance (yeast gene YKR066C): 1.5
- The level of expressed mRNA in the presence of chemical substance/The level of expressed mRNA in the absence of chemical substance (yeast gene YKR105C): 1.2
- The level of expressed mRNA in the presence of chemical substance/The level of expressed mRNA in the absence of chemical substance (yeast gene YKR106W): 1.7
- The level of expressed mRNA in the presence of chemical substance/The level of expressed mRNA in the absence of chemical substance (yeast gene YLL028W): 0.7
- The level of expressed mRNA in the presence of chemical substance/The level of expressed mRNA in the absence of chemical substance (yeast gene YLL057C): 1.1
- The level of expressed mRNA in the presence of chemical substance/The level of expressed mRNA in the absence of chemical substance (yeast gene YLL060C): 10.6
- The level of expressed mRNA in the presence of chemical substance/The level of expressed mRNA in the absence of chemical substance (yeast gene YLR043C): 2.1
- The level of expressed mRNA in the presence of chemical substance/The level of expressed mRNA in the absence of chemical substance (yeast gene YLR046C): 1.3
- The level of expressed mRNA in the presence of chemical substance/The level of expressed mRNA in the absence of chemical substance (yeast gene YML028W): 2.0
- The level of expressed mRNA in the presence of chemical substance/The level of expressed mRNA in the absence of chemical substance (yeast gene YML116W): 2.0
- The level of expressed mRNA in the presence of chemical substance/The level of expressed mRNA in the absence of chemical substance (yeast gene YMR015C): 0.8
- The level of expressed mRNA in the presence of chemical substance/The level of expressed mRNA in the absence of chemical substance (yeast gene YMR038C): 1.1
- The level of expressed mRNA in the presence of chemical substance/The level of expressed mRNA in the absence of chemical substance (yeast gene YNL239W): 1.3
- The level of expressed mRNA in the presence of chemical substance/The level of expressed mRNA in the absence of chemical substance (yeast gene YNL241C): 1.1
- The level of expressed mRNA in the presence of chemical substance/The level of expressed mRNA in the absence of chemical substance (yeast gene YNL259C): 1.4
- The level of expressed mRNA in the presence of chemical substance/The level of expressed mRNA in the absence of chemical substance (yeast gene YOL158C): 1.0
- The level of expressed mRNA in the presence of chemical substance/The level of expressed mRNA in the absence of chemical substance (yeast gene YOR031W): 1.5
- The level of expressed mRNA in the presence of chemical substance/The level of expressed mRNA in the absence of chemical substance (yeast gene YOR153W): 0.3
- The level of expressed mRNA in the presence of chemical substance/The level of expressed mRNA in the absence of chemical substance (yeast gene YOR247W): 0.4
- The level of expressed mRNA in the presence of chemical substance/The level of expressed mRNA in the absence of chemical substance (yeast gene YOR251C): 1.1
- The level of expressed mRNA in the presence of chemical substance/The level of expressed mRNA in the absence of chemical substance (yeast gene YOR273C): 0.5
- The level of expressed mRNA in the presence of chemical substance/The level of expressed mRNA in the absence of chemical substance (yeast gene YPL163C): 0.6
- The level of expressed mRNA in the presence of chemical substance/The level of expressed mRNA in the absence of chemical substance (yeast gene YPR200C): 2.0

Reference: patent US8192962B2, “Processes for detecting toxic substances” (Daikin Industries, Ltd., priority 2001, dated 2012)
